Test results published in patent US4904659A, “Substituted quinoline derivatives and pharmaceutical compositions thereof” (Development Finance Corporation of New Zeland, priority 1985, dated 1990).
Like-named read-outs stand apart in the source and are kept apart here.

Tests used:
P388 leukemia = assay: In vivo antitumour activity against P388 leukemia (cells inoculated intraperitoneally); parameters: species or system mice (F1 hybrids of DBA/2J male x C57BL/6J female); conditions: for P388 in vivo ILS (percentage increase in lifespan) / P388 in vivo Active: P388 leukemia; for P388 in vivo ILS (percentage increase in lifespan): at optimal dose (OD), intraperitoneal, days 1, 5 and 9, control survival 11 days; for P388 in vivo Active: at the stated dose, ILS greater than 20% significant; for P388 in vivo number of long-term survivors: number in parentheses after ILS, out of a group of 6, P388 leukemia
Method: (§1) OD--The optimal drug dose (in milligrams per kilogram), administered intraperitoneally as a solution in 0.1 ml of 30% v/v ethyl alcohol in water on days 1, 5 and 9 after tumour inoculation. The drug is administered as a soluble acid addition salt.
(§2) ILSmax--The percentage increase in lifespan of treated animals over that of control animals injected with tumour alone. The average survival of control mice was 11 days (for P388 leukemia) and 17 days (for Lewis lung carcinoma) ILS values greater than 20% (P388 leukemia) and 40% (Lewis lung carcinoma) are considered statistically significant. Numbers in parentheses after ILS values indicate the number of long-term survivors (out of a group of 6).
(§3) Y--Implies a significant value of drug activity at the stated dose.
(§4) N--Implies no statistically significant activity.
(§5) Both of these tumour lines were obtained as frozen cell stocks from Mason Research Inc., USA and are passaged intraperitoneally in DBA/25 mice of either sex (P388) or subcutaneously in C57BL/65 mice of either sex (LL) according to the standard methods (Cancer Chemother. Reports., 3, Part 3, p9, 1972).
(§6) Groups of six mice (F1 hybrids of DBA/2J male x C57BL/6J female) were injected intraperitoneally (P388) or intravenously (tail vein, LL), with 10^6 tumour cells on day 0. When given in this manner, P388 cells grow diffusely in the peritoneal cavity, whereas the Lewis lung cells from distinct solid tumour nodules in the lungs. Antitumour activity is determined by published methods (European J. Cancer, 19, pp.1607-1613, 1983).

[1] = Rm: lipophilic-hydrophilic balance from reversed phase partition chromatography; format: physicochemical; conditions: linearly related to 1-octanol/water partition coefficients
Excerpt: Rm-a measure of the compound's liphophilic-hydrophilic balance from reversed phase partition chromatography. Rm is linearly related to partition coefficients obtained in the 1-octanol/water system.

Lewis lung carcinoma = assay: In vivo antitumour activity against Lewis lung carcinoma (cells inoculated intravenously); parameters: species or system mice (F1 hybrids of DBA/2J male x C57BL/6J female); conditions: for LL in vivo ILS (percentage increase in lifespan) / LL in vivo Active: Lewis lung carcinoma; for LL in vivo ILS (percentage increase in lifespan): at optimal dose (OD), intraperitoneal, days 1, 5 and 9, control survival 17 days; for LL in vivo Active: at the stated dose, ILS greater than 40% significant; for LL in vivo number of long-term survivors: number in parentheses after ILS, out of a group of 6, Lewis lung carcinoma
Method: as §1, §2, §3, §4
LL--Is the Lewis lung carcinoma.
as §5, §6

bacterial cell lines = assay: In vitro antibacterial activity; format: cell-based; conditions: a number of bacterial cell lines
L1210 leukemia cells = assay: Growth inhibition of cultured L1210 leukemia cells (70 h, counted cell numbers); format: cell-based; conditions: Mus musculus
[2] = L1210 leukemia cells, 70 h, cell numbers reduced to 50% of controls, read-out: In vitro L1210 (IC50)

| chromatographic logP [1] | IC50 (L1210 leukemia cells; [2]) [nM] | IC50 (L1210 leukemia cells; L1210 leukemia cells, 70 h, cell numbers reduced to 50% of controls, read-out: In vitro L1210 (IC50), cell printed with unit nm) [nM] | Structure (SMILES) | P388 in vivo ILS (percentage increase in lifespan) (P388 leukemia) [%] | P388 in vivo Active (P388 leukemia) | LL in vivo ILS (percentage increase in lifespan) (Lewis lung carcinoma) [%] | LL in vivo Active (Lewis lung carcinoma) | LL in vivo number of long-term survivors (Lewis lung carcinoma) | antibacterial activity (bacterial cell lines) | IC50 (L1210 leukemia cells; L1210, 70 h, read-out: In vitro L1210 (IC50)) [nM] | P388 in vivo number of long-term survivors (P388 leukemia) |
| --- | --- | --- | --- | --- | --- | --- | --- | --- | --- | --- | --- |
| 0.06 | 1140 | – | CN(C)CCCNC(=O)c1cccc2ccc(-c3ccccc3)nc12 [Compound 2] | 71 | Y (Implies a significant value of drug activity at the stated dose) | < 40 | N (Implies no statistically significant activity) | – | – | – | – |
| 0.21 | 1300 | – | CN(C)CCCCCNC(=O)c1cccc2ccc(-c3ccccc3)nc12 [Compound 4] | < 20 | N (Implies no statistically significant activity) | < 40 | N (Implies no statistically significant activity) | – | – | – | – |
| – | – | – | O=C(NCCNCCO)c1cccc2ccc(-c3ccccc3)nc12 [Compound 5] | < 20 | N (Implies no statistically significant activity) | – | – | – | – | – | – |
| 0.15 | 8100 | – | CN(C)CCNC(=O)c1cccc2ccc(-c3ccccc3Cl)nc12 [Compound 8] | < 20 | N (Implies no statistically significant activity) | – | – | – | – | – | – |
| 0.05 | 1200 | – | CN(C)CCNC(=O)c1cccc2ccc(-c3cccc(Cl)c3)nc12 [Compound 10] | 40 | Y (Implies a significant value of drug activity at the stated dose) | < 40 | N (Implies no statistically significant activity) | – | – | – | – |
| – | 860 | – | COc1cccc(-c2ccc3cccc(C(=O)NCCN(C)C)c3n2)c1 [Compound 11] | 46 | Y (Implies a significant value of drug activity at the stated dose) | – | – | – | – | – | – |
| – | – | – | CN(C)CCNC(=O)c1cccc2ccc(-c3ccc(F)cc3)nc12 [Compound 13] | < 20 | N (Implies no statistically significant activity) | – | – | – | – | – | – |
| – | 600 | – | CN(C)CCNC(=O)c1cccc2ccc(-c3ccc(Br)cc3)nc12 [Compound 15] | 72 | Y (Implies a significant value of drug activity at the stated dose) | – | – | – | – | – | – |
| – | – | – | CN(C)CCNC(=O)c1cccc2ccc(-c3ccc(I)cc3)nc12 [Compound 16] | 48 | Y (Implies a significant value of drug activity at the stated dose) | – | – | – | – | – | – |
| – | 1290 | – | CN(C)CCNC(=O)c1cccc2ccc(-c3ccc(-c4ccccc4)cc3)nc12 [Compound 17] | < 20 | N (Implies no statistically significant activity) | – | – | – | – | – | – |
| -0.16 | – | 1290 | COc1ccc(-c2ccc3cccc(C(=O)NCCN(C)C)c3n2)cc1 [Compound 18] | 42 | Y (Implies a significant value of drug activity at the stated dose) | – | – | – | – | – | – |
| -0.33 | 27 | – | CN(C)CCNC(=O)c1cccc2ccc(-c3ccc(O)cc3)nc12 [Compound 19] | 22 | Y (Implies a significant value of drug activity at the stated dose) | – | – | – | – | – | – |
| -0.18 | 290 | – | CN(C)CCNC(=O)c1cccc2ccc(-c3ccc([N+](=O)[O-])cc3)nc12 [Compound 20] | 71 | Y (Implies a significant value of drug activity at the stated dose) | 85 | Y (Implies a significant value of drug activity at the stated dose) | – | – | – | – |
| -0.76 | 200 | – | CN(C)CCNC(=O)c1cccc2ccc(-c3ccc(N)cc3)nc12 [Compound 21] | 28 | Y (Implies a significant value of drug activity at the stated dose) | 65 | Y (Implies a significant value of drug activity at the stated dose) | – | – | – | – |
| – | 740 | – | CC(=O)Nc1ccc(-c2ccc3cccc(C(=O)NCCN(C)C)c3n2)cc1 [Compound 22] | < 20 | N (Implies no statistically significant activity) | – | – | – | – | – | – |
| -0.38 | 1330 | – | CN(C)CCNC(=O)c1cccc2ccc(-c3ccc(NS(C)(=O)=O)cc3)nc12 [Compound 23] | < 20 | N (Implies no statistically significant activity) | – | – | – | – | – | – |
| – | – | – | CN(C)CCNC(=O)c1ccc(Cl)c2ccc(-c3ccccc3)nc12 [Compound 25] | 63 | Y (Implies a significant value of drug activity at the stated dose) | – | – | – | – | – | – |
| – | – | – | CN(C)CCNC(=O)c1cc([N+](=O)[O-])cc2ccc(-c3ccccc3)nc12 [Compound 26] | 63 | Y (Implies a significant value of drug activity at the stated dose) | – | – | – | – | – | – |

| Structure (SMILES) | chromatographic logP [1] | IC50 (L1210 leukemia cells; [2]) [nM] | IC50 (L1210 leukemia cells; L1210 leukemia cells, 70 h, cell numbers reduced to 50% of controls, read-out: In vitro L1210 (IC50), cell printed with unit nm) [nM] | P388 in vivo ILS (percentage increase in lifespan) (P388 leukemia) [%] | P388 in vivo Active (P388 leukemia) | LL in vivo ILS (percentage increase in lifespan) (Lewis lung carcinoma) [%] | LL in vivo Active (Lewis lung carcinoma) | LL in vivo number of long-term survivors (Lewis lung carcinoma) | antibacterial activity (bacterial cell lines) | IC50 (L1210 leukemia cells; L1210, 70 h, read-out: In vitro L1210 (IC50)) [nM] | P388 in vivo number of long-term survivors (P388 leukemia) |
| --- | --- | --- | --- | --- | --- | --- | --- | --- | --- | --- | --- |
| CN(C)CCNC(=O)c1cccc2ccc(-c3ccccc3)nc12 [Compound 1] | -0.01 | – | – | 91 | Y (Implies a significant value of drug activity at the stated dose) | 70 | Y (Implies a significant value of drug activity at the stated dose) | 4 | show in vitro activity against a number of bacterial cell lines | 1300 | – |
| CN(C)CCCCNC(=O)c1cccc2ccc(-c3ccccc3)nc12 [Compound 3] | 0.14 | 680 | – | 93 | Y (Implies a significant value of drug activity at the stated dose) | 148 | Y (Implies a significant value of drug activity at the stated dose) | 2 | – | – | – |
| CN(C)CCNC(=O)c1cccc2ccc(-c3ccccn3)nc12 [Compound 7] | -1.43 | 1640 | – | 73 | Y (Implies a significant value of drug activity at the stated dose) | 91 | Y (Implies a significant value of drug activity at the stated dose) | – | – | – | 3 |
| CN(C)CCNC(=O)c1cccc2ccc(-c3cccnc3)nc12 [Compound 9] | -0.58 | 840 | – | 58 | Y (Implies a significant value of drug activity at the stated dose) | 52 | Y (Implies a significant value of drug activity at the stated dose) | 2 | – | – | – |
| CN(C)CCNC(=O)c1cccc2ccc(-c3ccncc3)nc12 [Compound 12] | -0.87 | 170 | – | 145 | Y (Implies a significant value of drug activity at the stated dose) | 132 | Y (Implies a significant value of drug activity at the stated dose) | 3 | show in vitro activity against a number of bacterial cell lines | – | 2 |
| CN(C)CCNC(=O)c1cccc2ccc(-c3ccc(Cl)cc3)nc12 [Compound 14] | 0.05 | 1170 | – | 52 | Y (Implies a significant value of drug activity at the stated dose) | 91 | Y (Implies a significant value of drug activity at the stated dose) | 4 | – | – | – |
